In patent publication US20080199413A1, “Novel Use of Organic Compounds” (priority 2005, published 2008):

Tested on: human dermal fibroblasts
Assay: UV-A radiation-induced mtDNA common deletion in human dermal fibroblasts (nested PCR)
Format: cell-based
Details: for Protection of fibroblasts against the UV-A radiation-induced generation of the common deletion (in words): overall finding of 3 experiments; for Prevalence of mtDNA deletion relative to untreated cells: representative experiment
Text: Sunlight (Systems Dr. […]) irradiation device. […] The cells were then harvested by trypsinisation. […] Dermatol. […] (7293-7316); [NT] (13928-13905); [NT] (7901-7920); [NT] (13650-13631); [NT] (219-238); C2, [NT]

[1] = UV-A radiation + 0.25 μM carotenoid, after 1 week
[2] = UV-A radiation + 0.5 μM carotenoid, after 1 week
[3] = UV-A radiation + 1.0 μM carotenoid, after 1 week
[4] = UV-A radiation + 2.0 μM carotenoid, after 1 week
[5] = UV-A radiation + 3.0 μM carotenoid, after 1 week
[6] = all doses tested (0.25-3 μM), after 1 week

Structure (SMILES) | Protection of fibroblasts against the UV-A radiation-induced generation of the common deletion (in words) | Prevalence of mtDNA deletion relative to untreated cells [1] | Prevalence of mtDNA deletion relative to untreated cells [2] | Prevalence of mtDNA deletion relative to untreated cells [3] | Prevalence of mtDNA deletion relative to untreated cells [4] | Prevalence of mtDNA deletion relative to untreated cells [5] | Effect on UV-A radiation-induced formation of the common deletion (in words) [6] | Effect on UV-A radiation-induced formation of the common deletion (in words) (at 0.5, 1 μM and 2 μM, after 1 week) | Prevalence of mtDNA deletion relative to untreated cells (UV-A radiation + 0.1 μM carotenoid, after 2 weeks) | Prevalence of mtDNA deletion relative to untreated cells (UV-A radiation + 0.25 μM carotenoid, after 2 weeks) | Prevalence of mtDNA deletion relative to untreated cells (UV-A radiation + 0.5 μM carotenoid, after 2 weeks) | Prevalence of mtDNA deletion relative to untreated cells (UV-A radiation + 1.0 μM carotenoid, after 2 weeks) | Prevalence of mtDNA deletion relative to untreated cells (UV-A radiation + 2.0 μM carotenoid, after 2 weeks) | Prevalence of mtDNA deletion relative to untreated cells (UV-A radiation + 3.0 μM carotenoid, after 2 weeks) | Effect on UV-A radiation-induced induction of the common deletion (in words) (all concentrations tested, after 2 weeks)
CC1=C(/C=C/C(C)=C/C=C/C(C)=C/C=C/C=C(C)/C=C/C=C(C)/C=C/C2=C(C)C[C@@H](O)CC2(C)C)C(C)(C)C[C@H](O)C1 [Zeaxanthin, zeaxanthin, reference compound] | no effect |  |  |  |  |  |  |  |  |  |  |  |  |  | 
CC1=C[C@H](O)CC(C)(C)[C@H]1/C=C/C(C)=C/C=C/C(C)=C/C=C/C=C(C)/C=C/C=C(C)/C=C/C1=C(C)C[C@@H](O)CC1(C)C [lutein] | found to protect | 0.98 | 0.27 | 0.71 | 0.37 | 0.59 | completely prevented |  |  |  |  |  |  |  | 
CC(C)=CCC/C(C)=C/C=C/C(C)=C/C=C/C(C)=C/C=C/C=C(C)/C=C/C=C(C)/C=C/C=C(\C)CCC=C(C)C [lycopene] | consistently found to protect | 2.90 | 1.22 | 1.53 | 1.53 | 2.52 | inhibits | Complete protection |  |  |  |  |  |  | 
CC1=C(/C=C/C(C)=C/C=C/C(C)=C/C=C/C=C(C)/C=C/C=C(C)/C=C/C2=C(C)C[C@@H](O)CC2(C)C)C(C)(C)CCC1 [β-cryptoxanthin] |  |  |  |  |  |  |  |  | 0.80 | 0.64 | 0.25 | 0.62 | 0.25 | 1.03 | abrogated
